Several values for one entry are separate records, joined by “and”; a condition that tells them apart may be missing. Equal entries are not always repeated. Where two headings read alike, the source gives them in different places.
How the values were obtained:
turkey β1-AR S151^ICL2A = turkey β1-AR S151^ICL2A (Meleagris gallopavo, UniProt P07700, S151A); format: cell-based; settings: for cAMP, time course: S151ICL2A
Procedure: (§1) CHO cells (transfected with a control empty vector or wild-type or mutant turkey β1-AR) were plated onto six-well plates, and were pre-incubated with culture medium buffered with 0.5 mM IBMX for 30 min at 37 °C[20]. […] After culture medium removal, cells were treated with 0.1 M HCl for 10 minutes at room temperature. After centrifugation, the supernatant was used for cAMP quantification using the Direct Cyclic AMP Enzyme Immunoassay kit (Enzo Life Sciences). […] The cAMP assays were repeated three times, and the data are represented as mean ± SD of the three independent experiments. The analysis was done using the log(agonist) vs. response function of Prism 8 (GraphPad)[20].

wild-type turkey β1-AR [1] = target: T1, wild-type turkey β1-AR (Meleagris gallopavo, UniProt P07700); format: cell-based
T1 sequence (P07700 whole entry): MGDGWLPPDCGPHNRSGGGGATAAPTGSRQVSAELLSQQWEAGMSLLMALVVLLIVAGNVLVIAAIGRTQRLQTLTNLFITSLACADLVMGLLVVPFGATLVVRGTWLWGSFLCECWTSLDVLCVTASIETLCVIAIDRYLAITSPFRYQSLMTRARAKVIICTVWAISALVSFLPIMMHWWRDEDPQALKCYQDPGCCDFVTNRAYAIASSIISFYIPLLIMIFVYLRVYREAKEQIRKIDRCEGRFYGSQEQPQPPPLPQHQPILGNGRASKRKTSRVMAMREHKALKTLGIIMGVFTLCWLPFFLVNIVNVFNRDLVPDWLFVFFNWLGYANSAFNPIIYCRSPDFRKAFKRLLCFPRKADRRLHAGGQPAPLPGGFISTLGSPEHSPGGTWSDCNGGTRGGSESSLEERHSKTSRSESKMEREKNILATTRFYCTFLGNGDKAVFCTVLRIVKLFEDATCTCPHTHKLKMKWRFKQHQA
Procedure: as §1

turkey β1-AR V230^5.61A = turkey β1-AR V230^5.61A (Meleagris gallopavo, UniProt P07700, V230A); format: cell-based; settings: for cAMP level: Fig 5c,e source data, V230A; for cAMP, time course: V2305.61A
turkey β1-AR V230^5.61A, sequence (P07700 whole entry V230A): as the sequence (P07700 whole entry) above, with V230A counted along it
Procedure: as §1

turkey β1-AR T291^6.36A = turkey β1-AR T291^6.36A (Meleagris gallopavo, UniProt P07700, T291A); format: cell-based; settings: for cAMP level: Fig 5c,e source data, T291A
turkey β1-AR T291^6.36A, sequence (P07700 whole entry T291A): as the sequence (P07700 whole entry) above, with T291A counted along it
Procedure: as §1

turkey β1-AR E233^5.64A = turkey β1-AR E233^5.64A (Meleagris gallopavo, UniProt P07700, E233A); format: cell-based
turkey β1-AR E233^5.64A, sequence (P07700 whole entry E233A): as the sequence (P07700 whole entry) above, with E233A counted along it
Procedure: as §1

turkey β1-AR Q150^ICL2A = turkey β1-AR Q150^ICL2A (Meleagris gallopavo, UniProt P07700, Q150A); format: cell-based; settings: for cAMP level: Fig 5c,e source data, Q150A
turkey β1-AR Q150^ICL2A, sequence (P07700 whole entry Q150A): as the sequence (P07700 whole entry) above, with Q150A counted along it
Procedure: as §1

turkey β1-AR F147^ICL2A = turkey β1-AR F147^ICL2A (Meleagris gallopavo, UniProt P07700, F147A); format: cell-based
turkey β1-AR F147^ICL2A, sequence (P07700 whole entry F147A): as the sequence (P07700 whole entry) above, with F147A counted along it
Procedure: as §1

turkey β1-AR P146^ICL2A = turkey β1-AR P146^ICL2A (Meleagris gallopavo, UniProt P07700, P146A); format: cell-based
turkey β1-AR P146^ICL2A, sequence (P07700 whole entry P146A): as the sequence (P07700 whole entry) above, with P146A counted along it
Procedure: as §1

turkey β1-AR Q237^5.68A = turkey β1-AR Q237^5.68A (Meleagris gallopavo, UniProt P07700, Q237A); format: cell-based; settings: for cAMP level: Fig 5c,e source data, Q237A
turkey β1-AR Q237^5.68A, sequence (P07700 whole entry Q237A): as the sequence (P07700 whole entry) above, with Q237A counted along it
Procedure: as §1

turkey β1-AR V326^7.36A = turkey β1-AR V326^7.36A (Meleagris gallopavo, UniProt P07700, V326A); test: cell-based
turkey β1-AR V326^7.36A, sequence (P07700 whole entry V326A): as the sequence (P07700 whole entry) above, with V326A counted along it
Procedure: as §1

wild-type turkey β1-AR [2] = target: T1, wild-type turkey β1-AR; test: cAMP assay, time course, transfected CHO cells; format: cell-based; settings: for cAMP, time course: WT
Procedure: as §1

[3] = test system: ligand-bound nucleotide-free β1-AR–Gs complex; format: biochemical, turkey; settings: ligand at ~EC90; 10 μM BODIPY FL GTPγS; 25 °C; mean ± SD
Excerpt: To investigate whether ligands with different efficacies have different effects on the stability of the intermediate state, we prepared the complex of ligand-bound β1-AR-Gs (nucleotide-free), and quantified the stability of the intermediate state complex (Fig. 7a). Fluorescently labeled BODIPY-GTPγS binding to the ligand-bound β1-AR–Gs (nucleotide-free) complex eventually leads to the dissociation of the complex to produce the fluorescently labeled product Gαs(BODIPY-GTPγS), which is detected by an increase in fluorescence (the β1-AR–Gαs(BODIPY-GTPγS)–Gβγ intermediate is very transient)[31],[35] […] The data were then fitted by nonlinear association analyses and half-life values (t1/2 = ln 2/k) were calculated based on the rate constant (Fig. 7b–e).
The reaction was initiated by adding 10 μM BODIPY™ FL GTPγS (Invitrogen). Relative fluorescence units (RFU) change was measured every 12 s for a total of 60 min at 25 °C. The BODIPY-GTPγS binding data were fitted to one phase exponential association curves using GraphPad Prism 8.

[4] = test system: β1-AR mutants of residues that interact with Gs; test: cAMP assay, dose-response, summary over mutants of Gs-interacting residues; format: cell-based, turkey; settings: range over mutants, Fig. 5c,d
wild-type turkey β1-AR [5] = target: T1, wild-type turkey β1-AR; settings: cited from earlier work
[6] = CHO, 5 min, read-out: Efficacy (% of max cAMP level)

turkey β1-AR S151^ICL2A, sequence (P07700 whole entry S151A): as the sequence (P07700 whole entry) above, with S151A counted along it

CC(CCc1ccc(O)cc1)NCCc1ccc(O)c(O)c1 (stereo not drawn) [Dobutamine, dobutamine]
EC50 (turkey β1-AR S151^ICL2A): 10.5 µM
Emax (turkey β1-AR S151^ICL2A; [6]): 38 ± 1.6%
cAMP, time course (turkey β1-AR S151^ICL2A; 0 min): 33 and 34 and 31
cAMP, time course (turkey β1-AR S151^ICL2A; 0.5 min): 39 and 36 and 32
cAMP, time course (turkey β1-AR S151^ICL2A; 1 min): 38 and 36
cAMP, time course (turkey β1-AR S151^ICL2A; 2 min): 41 and 45 and 47
cAMP, time course (turkey β1-AR S151^ICL2A; 5 min): 104 and 103
cAMP, time course (turkey β1-AR S151^ICL2A; 10 min): 98 and 96 and 94
cAMP, time course (turkey β1-AR S151^ICL2A; 15 min): 58 and 63 and 55
cAMP, time course (turkey β1-AR S151^ICL2A; 20 min): 48 and 49 and 46
cAMP, time course (turkey β1-AR S151^ICL2A; 25 min): 44 and 46 and 42
cAMP, time course (turkey β1-AR S151^ICL2A; 30 min): 42 and 49 and 46
EC50 (wild-type turkey β1-AR [1]): 1.58 µM
Emax (wild-type turkey β1-AR [1]; [6]): 100%
EC50 (turkey β1-AR V230^5.61A): 6.17 µM
Emax (turkey β1-AR V230^5.61A; [6]): 36 ± 1.1%
cAMP level (turkey β1-AR V230^5.61A; log[ligand] (M) -3): 167 and 175 and 168
cAMP level (turkey β1-AR V230^5.61A; log[ligand] (M) -4): 164 and 173 and 169
cAMP level (turkey β1-AR V230^5.61A; log[ligand] (M) -5): 121 and 131 and 129
cAMP level (turkey β1-AR V230^5.61A; log[ligand] (M) -6): 39 and 44 and 43
cAMP level (turkey β1-AR V230^5.61A; log[ligand] (M) -7): 36 and 40 and 38
cAMP level (turkey β1-AR V230^5.61A; log[ligand] (M) -8): 35 and 37
cAMP level (turkey β1-AR V230^5.61A; log[ligand] (M) -9): 32 and 37 and 36
cAMP, time course (turkey β1-AR V230^5.61A; 0 min): 30 and 28 and 33
cAMP, time course (turkey β1-AR V230^5.61A; 0.5 min): 32 and 35 and 38
cAMP, time course (turkey β1-AR V230^5.61A; 1 min): 34 and 37 and 35
cAMP, time course (turkey β1-AR V230^5.61A; 2 min): 45 and 41 and 43
cAMP, time course (turkey β1-AR V230^5.61A; 5 min): 126 and 122 and 128
cAMP, time course (turkey β1-AR V230^5.61A; 10 min): 106 and 105 and 108
cAMP, time course (turkey β1-AR V230^5.61A; 15 min): 61 and 56
cAMP, time course (turkey β1-AR V230^5.61A; 20 min): 52 and 50 and 51
cAMP, time course (turkey β1-AR V230^5.61A; 25 min): 46 and 44 and 47
cAMP, time course (turkey β1-AR V230^5.61A; 30 min): 53 and 47 and 55
EC50 (turkey β1-AR T291^6.36A): 6.61 µM
Emax (turkey β1-AR T291^6.36A; [6]): 21 ± 1.7%
cAMP level (turkey β1-AR T291^6.36A; log[ligand] (M) -3): 106 and 116 and 114
cAMP level (turkey β1-AR T291^6.36A; log[ligand] (M) -4): 100 and 115 and 113
cAMP level (turkey β1-AR T291^6.36A; log[ligand] (M) -5): 82 and 86 and 83
cAMP level (turkey β1-AR T291^6.36A; log[ligand] (M) -6): 40 and 42 and 41
cAMP level (turkey β1-AR T291^6.36A; log[ligand] (M) -7): 38 and 39
cAMP level (turkey β1-AR T291^6.36A; log[ligand] (M) -8): 34 and 39
cAMP level (turkey β1-AR T291^6.36A; log[ligand] (M) -9): 34 and 36 and 38
EC50 (turkey β1-AR E233^5.64A): 7.08 µM
Emax (turkey β1-AR E233^5.64A; [6]): 41 ± 3.7%
EC50 (turkey β1-AR Q150^ICL2A): 3.39 µM
Emax (turkey β1-AR Q150^ICL2A; [6]): 44 ± 3.5%
cAMP level (turkey β1-AR Q150^ICL2A; log[ligand] (M) -3): 192 and 204 and 207
cAMP level (turkey β1-AR Q150^ICL2A; log[ligand] (M) -4): 178 and 195 and 219
cAMP level (turkey β1-AR Q150^ICL2A; log[ligand] (M) -5): 151 and 169 and 177
cAMP level (turkey β1-AR Q150^ICL2A; log[ligand] (M) -6): 58 and 69 and 73
cAMP level (turkey β1-AR Q150^ICL2A; log[ligand] (M) -7): 36 and 42 and 43
cAMP level (turkey β1-AR Q150^ICL2A; log[ligand] (M) -8): 36 and 40
cAMP level (turkey β1-AR Q150^ICL2A; log[ligand] (M) -9): 35 and 37 and 41
EC50 (turkey β1-AR F147^ICL2A): 11.5 µM
Emax (turkey β1-AR F147^ICL2A; [6]): 17 ± 0.2%
cAMP level (turkey β1-AR F147^ICL2A; Fig 5c,e source data, F147A, log[ligand] (M) -9): 32
EC50 (turkey β1-AR P146^ICL2A): 4.07 µM
Emax (turkey β1-AR P146^ICL2A; [6]): 38 ± 2.4%
EC50 (turkey β1-AR Q237^5.68A): 9.55 µM
Emax (turkey β1-AR Q237^5.68A; [6]): 21 ± 1.7%
cAMP level (turkey β1-AR Q237^5.68A; log[ligand] (M) -3): 103 and 114 and 116
cAMP level (turkey β1-AR Q237^5.68A; log[ligand] (M) -4): 97 and 112 and 118
cAMP level (turkey β1-AR Q237^5.68A; log[ligand] (M) -5): 66 and 82 and 77
cAMP level (turkey β1-AR Q237^5.68A; log[ligand] (M) -6): 39 and 42
cAMP level (turkey β1-AR Q237^5.68A; log[ligand] (M) -7): 36 and 40 and 39
cAMP level (turkey β1-AR Q237^5.68A; log[ligand] (M) -8): 34 and 39 and 40
cAMP level (turkey β1-AR Q237^5.68A; log[ligand] (M) -9): 32 and 37 and 40
EC50 (turkey β1-AR V326^7.36A): 7.59 µM
Emax (turkey β1-AR V326^7.36A; [6]): 38 ± 1.2%
cAMP, time course (wild-type turkey β1-AR [2]; 0 min): 34 and 32 and 33
cAMP, time course (wild-type turkey β1-AR [2]; 0.5 min): 35 and 36 and 37
cAMP, time course (wild-type turkey β1-AR [2]; 1 min): 57 and 46 and 50
cAMP, time course (wild-type turkey β1-AR [2]; 2 min): 132 and 139 and 131
cAMP, time course (wild-type turkey β1-AR [2]; 5 min): 335 and 327 and 343
cAMP, time course (wild-type turkey β1-AR [2]; 10 min): 326 and 316 and 321
cAMP, time course (wild-type turkey β1-AR [2]; 15 min): 273 and 271 and 269
cAMP, time course (wild-type turkey β1-AR [2]; 20 min): 179 and 172 and 177
cAMP, time course (wild-type turkey β1-AR [2]; 25 min): 125
cAMP signal, time course (wild-type turkey β1-AR [2]; ligand 10^-3 M, time 0 min): 30 and 31 and 29
cAMP signal, time course (wild-type turkey β1-AR [2]; ligand 10^-3 M, time 0.5 min): 33 and 38 and 31
cAMP signal, time course (wild-type turkey β1-AR [2]; ligand 10^-3 M, time 1 min): 63 and 68 and 61
cAMP signal, time course (wild-type turkey β1-AR [2]; ligand 10^-3 M, time 2 min): 163 and 166 and 154
cAMP signal, time course (wild-type turkey β1-AR [2]; ligand 10^-4 M, time 0 min): 32 and 33 and 28
cAMP signal, time course (wild-type turkey β1-AR [2]; ligand 10^-4 M, time 0.5 min): 39 and 41 and 34
cAMP signal, time course (wild-type turkey β1-AR [2]; ligand 10^-4 M, time 1 min): 55 and 61
cAMP signal, time course (wild-type turkey β1-AR [2]; ligand 10^-4 M, time 2 min): 143 and 151 and 141
cAMP signal, time course (wild-type turkey β1-AR [2]; ligand 10^-5 M, time 0 min): 29 and 33 and 31
cAMP signal, time course (wild-type turkey β1-AR [2]; ligand 10^-5 M, time 0.5 min): 34 and 38 and 33
cAMP signal, time course (wild-type turkey β1-AR [2]; ligand 10^-5 M, time 1 min): 47 and 51 and 49
cAMP signal, time course (wild-type turkey β1-AR [2]; ligand 10^-5 M, time 2 min): 133 and 145 and 130
cAMP signal, time course (wild-type turkey β1-AR [2]; ligand 10^-6 M, time 0 min): 30 and 27
cAMP signal, time course (wild-type turkey β1-AR [2]; ligand 10^-6 M, time 0.5 min): 39 and 37 and 38
cAMP signal, time course (wild-type turkey β1-AR [2]; ligand 10^-6 M, time 1 min): 54 and 56 and 55
cAMP signal, time course (wild-type turkey β1-AR [2]; ligand 10^-6 M, time 2 min): 124 and 122 and 120
cAMP signal, time course (wild-type turkey β1-AR [2]; ligand 10^-7 M, time 0 min): 28 and 33 and 26
cAMP signal, time course (wild-type turkey β1-AR [2]; ligand 10^-7 M, time 0.5 min): 34 and 36 and 32
cAMP signal, time course (wild-type turkey β1-AR [2]; ligand 10^-7 M, time 1 min): 37 and 41 and 36
cAMP signal, time course (wild-type turkey β1-AR [2]; ligand 10^-7 M, time 2 min): 50 and 56
cAMP signal, time course (wild-type turkey β1-AR [2]; ligand 10^-8 M, time 0 min): 27 and 28 and 26
cAMP signal, time course (wild-type turkey β1-AR [2]; ligand 10^-8 M, time 0.5 min): 31 and 33 and 29
cAMP signal, time course (wild-type turkey β1-AR [2]; ligand 10^-8 M, time 1 min): 34 and 37
cAMP signal, time course (wild-type turkey β1-AR [2]; ligand 10^-8 M, time 2 min): 43 and 44
cAMP signal, time course (wild-type turkey β1-AR [2]; ligand 10^-9 M, time 0 min): 27 and 31 and 26
cAMP signal, time course (wild-type turkey β1-AR [2]; ligand 10^-9 M, time 0.5 min): 31 and 36 and 32
cAMP signal, time course (wild-type turkey β1-AR [2]; ligand 10^-9 M, time 1 min): 32 and 34 and 27
cAMP signal, time course (wild-type turkey β1-AR [2]; ligand 10^-9 M, time 2 min): 37 and 40 and 35
time-dependent cAMP response (phases) (wild-type turkey β1-AR [2]; near-saturating concentration (EC90), Fig. 6): a slower signal activation phase and an even slower signal termination phase
Complex half-life [3]: 6.9 ± 0.6 min
change of EC50 by β1-AR mutations [4]: 2 to 7 fold
reduction of the cAMP response by β1-AR mutations [4]: 17–44%
ligand efficacy class (wild-type turkey β1-AR [5]): partial agonist

Reference: PMC9283524 (Nature Communications, 2022)
